In patent publication US9493466B2, “Treatment of cancer with TOR kinase inhibitors” (Signal Pharmaceuticals, LLC, priority 2011, dated 2016):

What was measured:
[1] = system: HCT-116 tumors; assay: HCT-116 human colorectal cancer xenograft model; type: in vivo, SCID mice
Method: HCT-116 Human Colorectal Cancer Xenograft Model. The HCT-116 cell line was obtained from American Tissue Culture Collection (ATCC) (Gaithersberg, Md.) and grown in growth medium containing McCoy's 5A medium with 2 mM L-glutamine adjusted to contain 90% and 10% of fetal bovine serum. The cells were detached from tissue culture flasks using trypsin-EDTA. After centrifugation, the cell pellets were suspended in phosphate buffered saline (PBS) and counted using a hemocytometer. Matrigel was added to the cell suspension to adjust the final volume to 2×10^6 cells/0.1 mL of 1:1 mixture of Matrigel: PBS.
Female 6-8 weeks old CB17 SCID mice were obtained from Charles River Laboratories at a body weight of 17-20 g. Mice were anesthetized with inhaled isoflurane and then inoculated with HCT-116 tumor cells subcutaneously on the right hind leg with 0.1 mL of a single cell suspension using a sterile 1 mL syringe fitted with a 26 gauge needle. Following inoculation, the mice were returned to microisolator cages. The tumors were allowed to grow to about 100 mm^3 prior to randomization. The typical number of days required for tumors to reach 100 mm^3 was 7 to 8 days. The tumor of each animal was measured and animals with tumors ranging between 100 and 150 mm^3 were included in the study. The animals were distributed randomly into various cages and the cages were randomly assigned to vehicle, positive control, or test article groups. All of the mice were tagged with metal ear tags on the right ear. A typical group consisted of 8 to 10 animals.
Compound 1 was formulated in 0.5% CMC and 0.25% Tween 80 in water (as a suspension). The formulations were homogenized using a Teflon pestle and mortar (Potter-Elvehjem tissue grinder). Between the doses, the formulated compound was stored under constant stirring using a magnetic stirrer at 4° C. in the dark. The test article and vehicle were administered by oral gavage. The positive control (rapamycin) was prepared as solution in 2% ethanol, 45% polyethyleneglycol 400, and 53% saline and administered by IP injection. Vehicle and the test article were dosed in a volume of 5 mL/kg. The positive control rapamycin was dosed in a volume of 10 mL/kg. Sterile syringes and gavage needles were used for compound administration. All the procedures including injections were done in biosafety cabinets sprayed with ethanol prior to use.
Groups of female SCID mice bearing HCT-116 tumors (n=9-10/group) were dosed orally with vehicle or Compound 1 (1 mg/kg to 50 mg/kg) twice daily (BID), once daily (QD), every second day (Q2D), every third day (Q3D) or every 5th day (Q5D) throughout the study starting when the tumor volumes reached approximately 100 mm^3. The BID dose groups were dosed with a 10 h separation between the morning and evening doses. In the positive control group, rapamycin (n=6/group) was administered via the intraperitoneal (IP) route Q3D. At the end of each study, plasma and/or tumor samples were collected.
Tumor volumes were determined prior to the initiation of treatment and were considered as the starting volumes. Thereafter, tumors were measured twice a week for the duration of the study. The long and short axes of each tumor were measured using a digital caliper in millimeters. The tumor volumes were calculated using the formula: width^2×length/2 (using long [L] and short [W] axes of tumors). The tumor volumes were expressed in cubic millimeters (mm^3). Tumor volume data are expressed as mean±SE. The difference in tumor volume between vehicle and treatment group was expressed in percent volume reduction=100−tumor volume of treated/tumor volume of control×100. Statistical analysis was done using Graphpad Prism. Comparison between multiple groups was done using one-way ANOVA with Newman-Keuls post-test with a 95% significance level.
Initial body weights were recorded prior to the initiation of treatment using a digital scale. […]

[2] = system: U87MG tumors; assay: Apoptosis TUNEL assay in U87MG tumors; type: in vivo, mice; conditions: 5 mg/kg BID oral for 4 days
Method: Mechanism of action studies. To determine the mechanism of action of Compound 1, mice bearing U87MG tumors of approximately 500 mm^3 were dosed orally with vehicle or Compound 1 at 5 mg/kg BID for 4 days. The positive control, rapamycin, was dosed at 4 mg/kg Q3D for 4 days. Two hours after the 7th dose of Compound 1 on day 4, animals were euthanized and tumors were dissected out and snap frozen in liquid nitrogen. In the rapamycin-treated group tumors were collected at 2 hour after the 2nd dose on day 4. The tumors were processed for immunohistochemistry (IHC) or TUNEL.
Apoptosis TUNEL Assay. To detect apoptotic cells, fluorescence in situ cell death detection kit (Roche Biosciences) was used. […]
Quantitation of Immunohistochemistry. The tissues sections processed for apoptosis or immunostained for proliferating cells (Ki67) or blood vessels were quantitated using Metamorph software. Using 20× objective, 5 different fields from each section, 2-4 sections from each tumor, and 3-4 tumors from each treatment group or control were used for quantitation. The area of interest was expressed as the percent threshold area of the total area.
Apoptotic Activity of Compound 1. […] FITC-labeled nucleotides (representing the cells with DNA strand breaks, a hallmark of apoptosis) can be detected using a microscope equipped with a fluorescence attachment.

CO[C@H]1CC[C@H](N2C(=O)CNc3ncc(-c4ccc(C(C)(C)O)nc4)nc32)CC1 [Compound 1, 7-(6-(2-hydroxypropan-2-yl)pyridin-3-yl)-1-((1r,4r)-4-methoxycyclohexyl)-3,4-dihydropyrazino-[2,3-b]pyrazin-2(1H)-one]
tumor growth inhibition ([1]; 5 mg/kg (BID), 10 mg/kg (BID), 25 mg/kg (QD and Q2D), Day 25): Significant (p<0.001) tumor growth inhibition
Body weight loss ([1]; 10 mg/kg BID): 16.9%
tumor volume reduction ([1]; 10 mg/kg BID): Approximately 50%
Body weight loss ([1]; 25 mg/kg QD): 14%
minimum dose required to obtain >65% tumor volume reduction compared to vehicle ([1]; QD oral): 25 mg/kg
change in body weight ([1]; any other group): No significant change
TUNEL-positive cells compared with vehicle control [2]: more than a four-fold increase
